Test results published in publication PMC8453848, “Effect of GLPG1205, a GPR84 Modulator, on CYP2C9, CYP2C19, and CYP1A2 Enzymes: In Vitro and Phase 1 Studies” (Clinical Pharmacology in Drug Development, 2021).
Where “and” joins values, the source holds several entries; their conditions need not be identical. Equal values may be shown once. Read-outs that look alike come from different tables or passages of the source.

Tests used:
[1] = cited from earlier work
[2] = molecular target: CYP2C9 (Homo sapiens, UniProt P11712); assay: CYP2C9 inhibition, tolbutamide methylhydroxylase assay in human liver microsomes; assay type: in vitro ADME; set-up: from tissue; host or cells: in vivo, 14 healthy male subjects; settings: for IC50: estimated
Protocol: Inhibition of the biotransformation of CYP‐specific substrates by GLPG1205 was studied using human liver microsomes. Incubation was performed at 37°C with the following conditions: n = 3 for all assays; 0.1 M phosphate buffer (pH 7.4), the cofactor nicotinamide adenine dinucleotide phosphate (NADPH) incubated at 2 mM, the CYP‐specific substrate incubated at 1 nonsaturating concentration, and GLPG1205. Additional incubation was performed with (1) a 30‐minute preincubation step of GLPG1205 with microsomes before the addition of the cofactor NADPH and CYP substrate; and (2) a 30‐minute preincubation step of GLPG1205 with microsomes and the cofactor NADPH, before the addition of the CYP substrate. […] The CYP‐specific substrates were incubated per the above conditions at the following concentrations: tolbutamide, 200 μM, CYP2C9 substrate; S‐mephenytoin, 60 μM, CYP2C19 substrate; phenacetin, 40 μM, CYP1A2 substrate.
Further details of the assays used for each CYP substrate are reported in the Supplemental Methods. Metabolites of the CYP‐specific substrates (acetaminophen for CYP1A2, hydroxytolbutamide for CYP2C9, hydroxymephenytoin for CYP2C19) were quantified using LC‐MS/MS.
Enzymatic activity in the presence of GLPG1205 was expressed as a percentage of the control activity obtained with the vehicle only (ie, without GLPG1205 or reference inhibitor). Decreases in activity of less than 20% were not considered clinically relevant.
Protocol for CYP Inhibition of the biotransformation of CYP-specific substrates by GLPG1205 was studied using human liver microsomes.^7 Incubations were performed at 37°C with the following conditions: n = 3 for all assays; 0.1 M phosphate buffer pH 7.4; the cofactor β-nicotinamide adenine dinucleotide phosphate (NADPH) incubated at 2 mM; the CYP-specific substrate incubated at one non-saturating concentration; and GLPG1205. Additional incubations were performed with: 1) a 30-minute preincubation step of GLPG1205 with microsomes before addition of the cofactor NADPH and CYP substrate; and 2) a 30-minute preincubation step of GLPG1205 with microsomes and the cofactor NADPH, before addition of the CYP substrate.
The CYP-specific substrates were incubated at the following conditions: tolbutamide (200 µM; CYP2C9); S-mephenytoin (60 µM; CYP2C19); phenacetin (40 µM; CYP1A2).^8-10 Reference inhibitors (as detailed in the previous section) were incubated in parallel. […]
A 2-fold dilution in D9-OH-tolbutamide at 1 µM in water with 0.1% formic acid was applied to the supernatants and then analysis was performed by LC-MS/MS with chromatographic separation. […] The quantification of the metabolite, hydroxytolbutamide, was performed in MRM mode using the 287.1 to 89.2 transition. […]

[3] = Phase 1 drug-drug interaction study: safety and tolerability (adverse events)
[4] = once‐daily oral dosing for 14 days
[5] = GLPG1205 100 mg once a day + CYP450 substrates, n = 14
[6] = GLPG1205 100 mg once a day alone, n = 14

Sequence of CYP2C9 (P11712 whole entry): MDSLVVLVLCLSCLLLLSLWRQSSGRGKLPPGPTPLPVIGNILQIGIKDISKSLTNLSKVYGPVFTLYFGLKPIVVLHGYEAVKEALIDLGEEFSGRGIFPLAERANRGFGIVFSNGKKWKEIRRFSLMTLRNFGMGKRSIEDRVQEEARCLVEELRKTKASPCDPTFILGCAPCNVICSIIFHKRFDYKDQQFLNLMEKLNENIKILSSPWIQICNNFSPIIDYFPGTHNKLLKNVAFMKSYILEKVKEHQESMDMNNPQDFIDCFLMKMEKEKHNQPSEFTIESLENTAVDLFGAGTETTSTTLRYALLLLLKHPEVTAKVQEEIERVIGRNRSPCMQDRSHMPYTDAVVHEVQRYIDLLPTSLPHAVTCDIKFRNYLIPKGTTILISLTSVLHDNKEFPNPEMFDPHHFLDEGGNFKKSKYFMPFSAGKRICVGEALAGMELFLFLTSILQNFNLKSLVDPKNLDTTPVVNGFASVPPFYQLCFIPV

For `O=c1nc(OC[C@@H]2COCCO2)cc2n1CCc1cc(C#CC3CC3)ccc1-2` [GLPG1205, 9‐cyclopropylethynyl‐2‐[(S)‐1‐(1,4)dioxan‐2‐ylmethoxy]‐6,7‐dihydropyrimido[6,1‐a]isoquinolin‐4‐one], the “median time to maximum plasma concentration (tmax)” value ([1]; healthy male subjects) is given as 4 h, the maximum tolerated dose ([1]; healthy subjects) is given as 100 mg once a day and the Cmax ([1]; multiple doses of GLPG1205 100 mg once a day, steady state) is given as 3910 ng/mL. For the same molecule, the “day by which steady‐state plasma concentration was reached” value [1, 4] was ≤ 10 days, the “elimination half‐life, average” value [1, 4] was 88.6 h and the “inhibition of CYP2C9 in words” value ([2]; GLPG1205 50‐100 μM) was “moderate and reversible”. The IC50 ([2]; human liver microsomes, read-out: IC50 for inhibition of CYP2C9) was ~50 µM and ≥ 50 µM, the IC50 ([2]; equivalent of ≥50 μM, read-out: IC50 for inhibition of CYP2C9, equivalent) was ≥ 49.9 µM and the inhibition at 20 min ([2]; human, liver microsomes, pH 7.4, probe tolbutamide 200 µM, GLPG1205 50‐100 μM without preincubation, tolbutamide 200 μM) was 49 to 56.9%. For the same molecule, the “Any TEAE” value [3, 5] was 3 (21.4) n (%), the Gastrointestinal disorders [3, 5] was 0 n (%) and the “General disorders and general administration‐site conditions” value [3, 5] was 0 n (%). The Headache [3, 5] was 1 (7.1) n (%), the “Influenza‐like illness” value [3, 5] was 0 n (%) and the “Musculoskeletal and connective tissue disorders” value [3, 5] was 1 (7.1) n (%). The Myalgia [3, 5] was 1 (7.1) n (%), the Nausea [3, 5] was 0 n (%) and the Nervous system disorders [3, 5] was 1 (7.1) n (%). The Oropharyngeal pain [3, 5] was 1 (7.1) n (%), the Pain [3, 5] was 0 n (%) and the “Respiratory, thoracic, and mediastinal disorders” value [3, 5] was 1 (7.1) n (%). For the same molecule, the “Any TEAE” value [3, 6] was 9 (64.3) n (%), the Back pain [3, 6] was 0 n (%) and the Disturbance in attention [3, 6] was 2 (14.3) n (%). For the same molecule, the Eye disorders [3, 6] was 1 (7.1) n (%), the Fatigue [3, 6] was 1 (7.1) n (%) and the Flatulence [3, 6] was 1 (7.1) n (%). For the same molecule, the Flushing [3, 6] was 1 (7.1) n (%), the Gastroenteritis [3, 6] was 1 (7.1) n (%) and the Gastrointestinal disorders [3, 6] was 1 (7.1) n (%). The “General disorders and general administration‐site conditions” value [3, 6] was 1 (7.1) n (%), the Headache [3, 6] was 5 (35.7) n (%) and the Hyperhidrosis [3, 6] was 0 n (%). The Infections and infestations [3, 6] was 1 (7.1) n (%), the Lacrimation increased [3, 6] was 1 (7.1) n (%) and the “Musculoskeletal and connective tissue disorders” value [3, 6] was 1 (7.1) n (%). The Myalgia [3, 6] was 1 (7.1) n (%), the Nasopharyngitis [3, 6] was 0 n (%) and the Nervous system disorders [3, 6] was 8 (57.1) n (%). The Oropharyngeal pain [3, 6] was 1 (7.1) n (%), the Paresthesia [3, 6] was 1 (7.1) n (%) and the Presyncope [3, 6] was 1 (7.1) n (%). For the same molecule, the Rash [3, 6] was 0 n (%), the “Respiratory, thoracic, and mediastinal disorders” value [3, 6] was 1 (7.1) n (%) and the “Skin and subcutaneous tissue disorders” value [3, 6] was 0 n (%). For the same molecule, the Vascular disorders [3, 6] was 1 (7.1) n (%), the Vision blurred [3, 6] was 0 n (%) and the “moderate presyncope, subjects” value ([3]; GLPG1205 alone) was 1 n. The “moderate oropharyngeal pain, subjects” value ([3]; GLPG1205 plus CYP450 substrates) was 1 n, the “deaths or serious AEs” value ([3]; during the study) was “no deaths or serious AEs” and the “laboratory safety tests, ECG, vital signs, physical examination” value ([3]; during the study) was “No clinically significant trends or abnormalities”.
